Marks after values point to notes of the source that are not given here.
Columns and labels:
Format in all cases: in vivo, mouse
[1] = system: KK-A^y/Ta Jcl mice; assay: Blood-sugar level after single and repeated oral administration (Example 1)
Description: On the day of initiation of administration (Day 1 of Administration), the obese/spontaneously type II diabetic mice; KK-A^y/Ta Jcl mice (male, 6-weeks aged, n=8) were treated through individual oral administration of the Test Compound 1 (ethyl N-allyl-N—[(E)-2-methyl-3-[4-(4-amidinophenoxycarbonyl)-phenyl]propenoyl]aminoacetate/methanesulfonate) of the present invention and the Control Compound 1 (5-{4-[2-(5-ethylpyridine-2-yl)ethoxy]benzyl}-1,3-thiazolidine-2,4-dione; pioglitazone) at the daily dose of 30 mg/kg, or the control medium (0.5% CMC), and blood was drawn from each animal through the orbital venous plexus 6 hours after administration. The blood-sugar levels were measured in accordance with the enzyme electrode method by use of Antosense II (manufactured by Daikin Kogyo KK of Japan). The said test was carried out while the animals were allowed free access to food and water.
Following the above-described single administration, the repeated, once-a-day forced oral administration of each compound was performed at the same daily dose for the total period of 14 consecutive days. On Days 3 and 11, blood was drawn in the same manner as described above 6 hours after administration of each compound, followed by measurement of the blood-sugar level.
(§1) The blood-sugar, TC, TG, IRI and IRG levels and the body weight were expressed as a mean value±standard deviation as calculated for each group of animals. With reference to the significance test between the group treated through administration of the medium and each group treated through administration of the compound, the F test was effected to analyze the data and then, the Student's t-test and Aspin-Welch's t-test were used in cases where the variance between the two groups was determined to be equal and unequal, respectively. Referring to the significance level, less than 5% (p<0.05) was considered significant, and the significance level was expressed as divided into the two events of less than 1% (**: p<0.01) and less than 5% (*: p<0.05).

[2] = system: KK-A^y/Ta Jcl mice; assay: Glucose loading test after repeated administration for 14 days (Example 1)
Description: (§2) As from Day 14 afterwards, the animals after being fasted for 18 hours or more were loaded orally with a glucose solution (2 g/kg, 10 mL/kg), whereby the blood-sugar levels were measured before, and 120 min. after, the said glucose loading. Each of the compounds was given orally to the animals 3 hours prior to the glucose loading, and the whole blood was drawn from each of the animals under anesthesia. Each of the said blood samples was centrifuged to yield a blood plasma, and the resultant blood plasmas were all preserved under freezing in a ultra-low-temperature freezer for subsequent use in the below-described measurements.
(§3) The blood-sugar level, total cholesterol level (hereinafter referred to briefly as “TC level”) and triglyceride level (hereinafter referred to briefly as “TG level”) were detected individually in accordance with the hexokinase/G-6-PDH method, enzyme method and GPO/HDAOS method, and measured with use of Biochemical Auto-Analyzer (Model AU 400, manufactured by Olympus Co. of Japan). The plasma insulin level (hereinafter referred to briefly as “IRI level”) and the plasma glucagon level (hereinafter referred to briefly as “IRG level”) were detected individually with the ELISA method (Lebisinsulin Mouse Insulin Kit, produced by K.K. Shibayagi of Japan) and the ELISA method (YK090 Glucagon EIA Kit, produced by K.K. Yanaihara Kenkyuu-sho of Japan), followed by measurement with use of a plate reader (Immuno Mini NJ-2300, Nalge Nunc International K.K. of Japan).
as §1

[3] = system: KK-A^y/Ta Jcl mice; assay: Plasma TC, TG, blood-sugar, IRI and IRG levels 3 hours subsequent to the glucose-loading test (Example 1); conditions: 3 hours subsequent to glucose-loading test, after 14 days 30 mg/kg p.o.
Description: as §2, §3, §1

[4] = repeated once-a-day oral 30 mg/kg, 6 hours after administration

**Q.** Which “Blood-sugar level before administration” value ([1]; Day 1, before single oral administration of 30 mg/kg (baseline)) does the source give for `CCc1ccc(CCOc2ccc(CC3SC(=O)NC3=O)cc2)nc1` (stereo not shown) [Control Compound 1, 5-{4-[2-(5-ethylpyridine-2-yl)ethoxy]benzyl}-1,3-thiazolidine-2,4-dione, reference compound] here?
**A.** 440.6 ± 24.3 mg/dL

**Q.** What about the “Blood-sugar level Day 3” value [1, 4] of the same compound?
**A.** 224.4 ± 14.4 mg/dL

**Q.** What about the “Blood-sugar level Day 11” value [1, 4] of the same compound?
**A.** 220.3 ± 8.2* mg/dL

**Q.** What about the “Blood-sugar lowering action vs control medium group (in words)” value ([1]; single administration 30 mg/kg, 6 hours after administration) of the same compound?
**A.** failed to elicit any significant blood-sugar lowering action

**Q.** What about the “Blood-sugar level 6 hrs. after administration” value ([1]; single oral administration, 30 mg/kg) of the same compound?
**A.** 287.9 ± 28.6 mg/dL

**Q.** And the “Blood-sugar level before glucose loading” value ([2]; after 14 days 30 mg/kg p.o., fasted, compound 3 hours prior to loading)?
**A.** 156.9 ± 5.3 mg/dL

**Q.** And the “Blood-sugar level 120 Min. after glucose loading” value ([2]; after 14 days 30 mg/kg p.o., glucose 2 g/kg orally)?
**A.** 236.9 ± 19.6 mg/dL

**Q.** And the “Blood-sugar lowering action in the glucose loading test vs medium control group (in words)” value ([2]; after repeated administration for 14 consecutive days)?
**A.** not observed to produce any significant difference

**Q.** And the Blood-sugar level [3]?
**A.** 289.9 ± 20.6 mg/dL

**Q.** And the IRG (plasma glucagon level) [3]?
**A.** 488 ± 45.8 pg/mL

**Q.** What about the “IRI (plasma insulin level)” value [3] of the same compound?
**A.** 1.25 ± 0.28 ng/mL

**Q.** What about the TC [3] of the same compound?
**A.** 114.6 ± 4.8 mg/dL

**Q.** And the TG [3]?
**A.** 72.7 ± 4.7 mg/dL
